# Measurements from patent US20200375929A1, “METHODS AND COMPOSITIONS FOR THE TREATMENT OF DISEASES ASSOCIATED WITH CANCER, INFLAMMATION, OR IMMUNE RESPONSE” (Washington University, priority 2017, published 2020).
# “Also recorded” adds a separate entry of the source. Structures can show the parent of a compound that is named as a salt. Where a SMILES comes first, the peptide text is derived from it. The star is where a group is joined. Cbz = O=C(OCc1ccccc1)*
# Columns and labels:
# IκBζ [1] = assay: LPS-induced Ikb-ζ protein induction in BMDMs (western blot); format: cell-based, mouse; conditions: for LPS-induced Ikb-ζ induction, protein level: BMDMs treated with compound 12 h, then LPS 100 ng/ml; for effect of added agent on Ikb-ζ induction in DI-treated cells: DI 12 h plus agent
# Procedure: (§1) BMDM were prepared from 6- to 12-week-old mice as described 1 and cultured in RMPI-1640 medium supplemented with 10% fetal bovine serum (FBS), 2 mM L-glutamine, and 100 U/mL penicillin-streptomycin and mouse recombinant M-CSF ([…], Peprotech). For experiments, cells were seeded at concentration 10^6 cells/mL in tissue culture plates of various formats. The cells were treated with DI (250 μM (unless stated otherwise), cat #592498, Sigma), DMF (50 μM (unless stated otherwise), cat #242926, Sigma), 3-(ethoxycarbonyl)but-3-enoic acid (3MI, 5 μM, Aris Pharmaceuticals Inc.), 4-ethoxy-2-methylene-4-oxobutanoic acid (MI, Aris Pharmaceuticals Inc.) for 12 h and activated with lipopolysaccharide (LPS; 100 ng/mL; E. coli 0111:B4, Sigma) for 1 h or as indicated. In some experiments cells were stimulated with combination of LPS (20 ng/mL) and IFN-γ (50 ng/mL; Peprotech). In some experiments cells were treated with α-tocopherol (AT, 10 μM; Sigma), MitoTEMPO (MT, 500 μM; Sigma), N-acetylcysteine (NAC, 1 mM, Sigma), ethylester of GSH (EtGSH; 1 mM, Santa Cruz) or buthionene sulfoximine (BSO, 500 μM, Sigma) alone or in combination with DI for 12 h. In some experiments BMDMs were treated with DI for 12 h and bafilomycin A (BafA, 100 nM, Sigma) or MG132 (10 μM, Selleckchem) were added 30 min before subsequent LPS stimulation.
# Cells were lysed in RIPA Lysis Buffer System (Santa Cruz) and heat-denatured at 95° C. for 5 min in reducing sample buffer (BioRad). Proteins were separated on 4%-20% polyacrylamide gradient gels (BioRad) and transferred onto 0.45 μm pore size PVDF membranes (Millipore). Non-specific binding was blocked with 5% skim milk (or 5% BSA when phospho-proteins were analyzed), and membranes were probed with primary antibodies specific to Nrf2 (#12721), HO-1 (#70081), IκBζ (mouse specific, #93726), IκBζ(#9244), ATF3 (#D2Y5W), IRAK1 (#4504; sensitivity of IRAK1 detection diminishes upon IRAK1 K63 ubiquitination), phospho-IKK (Ser176/180, #2697), p62/SQSTM1 (#5114), phospho-eIF2α (Ser51, #9721), eIF2α (#5324) from Cell Signaling; GAPDH (sc-25778), IκBα (sc-1643), ATF3 (sc-188), SDHA (sc-166909) from Santa Cruz; NQO1 (ab28947) from Abeam, followed by incubation with anti-rabbit-HRP (1:10,000; sc-2030) or anti-mouse-HRP (1:10,000; sc-2031) from Santa Cruz and Clarity western ECL substrate (Bio-Rad). Membranes were exposed to X-Ray films (Research Products International Corp.) and developed using SRX-101A film processor (Konica Minolta). GAPDH run on the same blot was used as loading control. After scanning of original films image brightness of some blots was adjusted and bands were cropped using ImageJ. Densitometry was performed using ImageJ.
# IL6, IL12, IL1b, TNFα = assay: Cytokine production in LPS-stimulated BMDMs (ELISA); format: cell-based, mouse; conditions: then LPS; for LPS-induced cytokine production: BMDMs pretreated 12 h; for effect of co-treatment on DI-mediated inhibition of cytokine (IL6) production: agent added simultaneously with DI
# Procedure: as §1
# Cytokines in cell supernatants were analyzed using DuoSet® ELISA kits according to manufacturer protocol (R&D Systems). The supernatants from BMDMs were diluted 1:4, from human blood monocytes 1:3.
# Nrf2 = Nrf2 response in BMDMs (western blot, target genes); format: cell-based, mouse; conditions: 12 h treatment
# Procedure: as §1, with “In some experiments BMDMs were treated with DI for 12 h and bafilomycin A (BafA, 100 nM, Sigma) or MG132 (10 μM, Selleckchem) were added 30 min before subsequent LPS stimulation.” left out
# (§2) Cells were lysed in RIPA Lysis Buffer System (Santa Cruz) and heat-denatured at 95° C. for 5 min in reducing sample buffer (BioRad). […] Non-specific binding was blocked with 5% skim milk (or 5% BSA when phospho-proteins were analyzed), and membranes were probed with primary antibodies specific to Nrf2 (#12721), HO-1 (#70081), IκBζ (mouse specific, #93726), IκBζ(#9244), ATF3 (#D2Y5W), IRAK1 (#4504; sensitivity of IRAK1 detection diminishes upon IRAK1 K63 ubiquitination), phospho-IKK (Ser176/180, #2697), p62/SQSTM1 (#5114), phospho-eIF2α (Ser51, #9721), eIF2α (#5324) from Cell Signaling; GAPDH (sc-25778), IκBα (sc-1643), ATF3 (sc-188), SDHA (sc-166909) from Santa Cruz; NQO1 (ab28947) from Abeam, followed by incubation with anti-rabbit-HRP (1:10,000; sc-2030) or anti-mouse-HRP (1:10,000; sc-2031) from Santa Cruz and Clarity western ECL substrate (Bio-Rad). […]
# STAT3 = STAT3 activation in LPS-stimulated BMDMs (western blot); format: cell-based, mouse; conditions: BMDMs, 12 h pretreatment
# Procedure: as §1, with “In some experiments BMDMs were treated with DI for 12 h and bafilomycin A (BafA, 100 nM, Sigma) or MG132 (10 μM, Selleckchem) were added 30 min before subsequent LPS stimulation.” left out
# as §2
# IκBζ [2] = assay: Ikb-ζ protein in LPS-stimulated human monocytes (western blot); format: cell-based; conditions: human blood monocytes, DI plus agent, LPS 1 h
# Procedure: Cells were lysed in RIPA Lysis Buffer System (Santa Cruz) and heat-denatured at 95° C. for 5 min in reducing sample buffer (BioRad). Proteins were separated on 4%-20% polyacrylamide gradient gels (BioRad) and transferred onto 0.45 μm pore size PVDF membranes (Millipore). Non-specific binding was blocked with 5% skim milk (or 5% BSA when phospho-proteins were analyzed), and membranes were probed with primary antibodies specific to Nrf2 (#12721), HO-1 (#70081), IκBζ (mouse specific, #93726), IκBζ(#9244), ATF3 (#D2Y5W), IRAK1 (#4504; sensitivity of IRAK1 detection diminishes upon IRAK1 K63 ubiquitination), phospho-IKK (Ser176/180, #2697), p62/SQSTM1 (#5114), phospho-eIF2α (Ser51, #9721), eIF2α (#5324) from Cell Signaling; GAPDH (sc-25778), IκBα (sc-1643), ATF3 (sc-188), SDHA (sc-166909) from Santa Cruz; NQO1 (ab28947) from Abeam, followed by incubation with anti-rabbit-HRP (1:10,000; sc-2030) or anti-mouse-HRP (1:10,000; sc-2031) from Santa Cruz and Clarity western ECL substrate (Bio-Rad). […]
# Blood from healthy donors was acquired from LRS chambers supplied by the Mississippi Valley Regional Blood Center. […] After extensive washes to allow removal of non-adherent cells, monocytes (>95% purity) were harvested, counted and 5×10^5 cells were plated per well in 24-well plates. […]
# ATF3 = ATF3 protein expression (western blot); format: cell-based, mouse; conditions: mouse macrophages and human monocytes, DI plus agent
# Procedure: as §1, with “In some experiments BMDMs were treated with DI for 12 h and bafilomycin A (BafA, 100 nM, Sigma) or MG132 (10 μM, Selleckchem) were added 30 min before subsequent LPS stimulation.” left out
# as §2
# HBL1 cells line (ABC) = assay: DLBCL cell viability, resazurin assay, ABC subtype; format: cell-based; conditions: HBL1, 4 days, refreshed daily; DI 125-250 μM
# [3] = system: LY1 and LY7 (GCB) cell lines; assay: DLBCL cell viability, resazurin assay, GCB subtype; format: cell-based; conditions: LY1 and LY7, 4 days, refreshed daily; DI 125-250 μM
compound,measurement,setting,value
"C=C(CC(=O)O)C(=O)OCC [3MI, 3-(ethoxycarbonyl)but-3-enoic acid]","LPS-induced Ikb-ζ induction, protein level",IκBζ [1],inhibited IκBζ induction
"CCCCS(=N)(=O)CCC(N)C(=O)O (stereo not shown) [BSO, buthionine sulfoximine, reference compound]",LPS-induced cytokine production,"IL6, IL12, IL1b, TNFα",does not inhibit cytokine production
same,"Nrf2 response (Nrf2 protein, target genes)",Nrf2,nor trigger Nrf2 response
"COC(=O)CC(=O)OC [DM, Dimethyl malonate, reference compound]","LPS-induced Ikb-ζ induction, protein level",IκBζ [1],does not affect Ikbζ expression
"COC(=O)/C=C/C(=O)OC [DMF, Dimethyl fumarate, reference compound]","LPS-induced Ikb-ζ induction, protein level",IκBζ [1],strongly inhibited Ikb-ζ induction; also recorded: inhibited IκBζ induction
same,LPS-induced cytokine production,"IL6, IL12, IL1b, TNFα",inhibit IL6 but not TNF production; also recorded: selective inhibition of IL-6
same,"Nrf2 response (Nrf2 protein, target genes)",Nrf2,triggered Nrf2 response
same,STAT3 activation (Y705 phosphorylation),STAT3,effective to inhibit STAT3 activation
"CCOC(=O)CNC(=O)[C@H](CS)NC(=O)CC[C@H](N)C(=O)O [EtGSH, ethylester of GSH, reference compound]",effect of added agent on Ikb-ζ induction in DI-treated cells,"IκBζ [1]; BMDMs, LPS",restored LPS-mediated IκBζ induction
same,effect of co-treatment on DI-mediated inhibition of cytokine (IL6) production,"IL6, IL12, IL1b, TNFα",reversed the effect of DI
same,effect of co-treatment on IκBζ induction in DI-treated cells,IκBζ [2],restored LPS-mediated IκBζ induction
same,DI-mediated ATF3 expression upon co-treatment,ATF3,efficiently decreased
"CC(C)C[C@@H](C=O)NC(=O)[C@H](CC(C)C)NC(=O)[C@H](CC(C)C)NC(=O)OCc1ccccc1 [MG132, reference compound] (Cbz-Leu-Leu-Leu-aldehyde)",effect of added agent on Ikb-ζ induction in DI-treated cells,"IκBζ [1]; BMDMs, LPS",did not affect Ikb-ζ levels; also recorded: neither rescued IκBζ induction
"C=C(CC(=O)OCC)C(=O)O [MI, 4-ethoxy-2-methylene-4-oxobutanoic acid]","LPS-induced Ikb-ζ induction, protein level",IκBζ [1],did not
same,effect on IκBζ/IL-6 in combination with BSO,"IκBζ [1]; BMDMs, compound plus BSO 500 μM, LPS",unlocked the effect
"CN1CCCC(CN2c3ccccc3Sc3ccccc32)C1 (stereo not shown) [Mepazine, mepazine, reference compound]","growth / toxicity, ABC DLBCL",HBL1 cells line (ABC),inhibited growth of HBL1
same,"growth / toxicity, GCB DLBCL",[3],not LY1 and LY7
"CC(=O)N[C@@H](CS)C(=O)O [NAC, N-acetylcysteine]",effect of added agent on Ikb-ζ induction in DI-treated cells,"IκBζ [1]; BMDMs, LPS",restored Ikb-ζ production; also recorded: restored LPS-mediated IκBζ induction
same,effect of co-treatment on DI-mediated inhibition of cytokine (IL6) production,"IL6, IL12, IL1b, TNFα",completely abrogated effect of DI when added simultaneously with DI
same,effect of co-treatment on DI-mediated inhibition of cytokine (IL6) production,"IL6, IL12, IL1b, TNFα; listed as N-acetylcysteine",reversed the effect of DI
same,DI-mediated ATF3 expression upon co-treatment,ATF3,efficiently decreased
"CO/C1=C\C(C)=C\[C@@H](C)[C@@H](O)[C@@H](C)C/C(C)=C/C=C/[C@H](OC)[C@@H]([C@@H](C)[C@@H](O)[C@H](C)[C@@]2(O)C[C@@H](O)[C@H](C)[C@@H](C(C)C)O2)OC1=O [bafilomycin A, reference compound]",effect of added agent on Ikb-ζ induction in DI-treated cells,"IκBζ [1]; BMDMs, LPS",neither rescued IκBζ induction
